Test results published in patent EP2246037A2, “Anti-aging and whitening properties of quercetin, 18a-glycyrrhetinic acid, hederagenin and its derivatives” (Korres S.A. Natural Products, priority 2009, dated 2010).
Entries after “also recorded” stand apart in the source; their conditions may differ.

Legend:
[1] = tested on: middle aged and terminally senescent HFL-1 HDFs; test: Reversal of senescent phenotype: cell number, morphology and β-galactosidase staining after 1 week of treatment; assay type: cell-based, human; details: for proliferation (number of cells) / β-galactosidase activity staining: 1 week; for morphology and proliferation: summary of section 3, middle aged or terminally senescent cells
Method: The steps, methods and results that were obtained regarding the anti-aging properties of the examined substances are the following: • 1) Study of the lifespan of human diploid fibroblasts in vitro in the presence of the substances. • 1.1. HFL-1 human diploid fibroblasts (HDFs) were used in in vitro conditions (growth at 37°C, 5% CO2 and 95% humidity). • 1.2. The cells were maintained in Dulbecco's modified Eagle's medium (DMEM ®; Invitrogen Life Technologies Inc.) supplemented with 10% (v/v) fetal calf serum, 100 Units/ml penicillin, 100 µg/ml strepromycin, 2 mM glutamine and 1% (v/v) non-essential amino acids (complete medium). • 1.3. The cells were constantly cultured in culture medium supplemented with the substances [final concentration for quercetin (QUER), 18α-glycyrrhetinic acid (18α GA), and hederagenin (HED): 2 µg/ml and for quercetin caprylate (QU-CAP) three concentrations were applied: 0.5, 2 and 5 µg/ml]. Quercetin, 18α-glycyrrhetinic acid and hederagenin were diluted in DMSO (dimethyl sulfoxide) whereas quercetin caprylate was diluted in caprilic/capric triglycerides (CAP). Therefore, the control cultures were incubated in medium supplemented with 0.1% DMSO or 0.1% CAP. • 1.4. The cells were replenished with fresh media supplemented with the substances or the diluents every 24 h and their numbers were examined using a Coulter Z2 ® counter (Coulter Corporation) until they reached senescence (approximately after 13 weeks). The cumulative population doublings performed by each culture were calculated using the following formula: CPD=Σ[PD] where PD=LOG[Nfinal/Ninitial]/LOG[2], where N final represents the number of cells that were measured when each culture reached confluence and N initial represents the number of cells that was initially seeded. • 1.5. Photographs of the cells maintained in cell culture and treated with the various substances for the same time period were taken. • 1.6. […] More specifically, cells that were incubated with quercetin caprylate gave up to 2.8% more population doublings as compared to the population doublings performed by the relative control cultures. Cells that were incubated with the other substances gave up to 2.9% more population doublings as compared to their relative control cultures. • 1.7. […] Cells that were treated with either of the tested substances maintained the young morphology for longer as compared to the control cultures (DMSO-treated and CAP-treated). […] HFL-1 HDFs were cultured as described in 1.1-1.4 for 10 consecutive weeks and were then subjected to β-galactosidase activity staining. • 1.2. Briefly, 10^5 cells from each culture were seeded in 6-well plates. After 24 h cells were washed with PBS (phosphate buffered saline), fixed in 0.2% glutaraldehyde and 2% formaldehyde for 5 min, washed again with PBS, and finally stained for 24 h at 37 °C in the absence of CO2, in staining solution (150 mM NaCl, 2 mM MgCl2, 5 mM K3Fe(CN)6, 40 mM citric acid, and 12 mM sodium phosphate, pH 6.0) containing 1 mg/ml 5-bromo-4-chloro-3-indolyl-β-D-galactoside. Photographs were then taken. • 1.3. […] HFL-1 HDFs that have senesced in vitro were used (growth at 37°C, 5% CO2 and 95% humidity). More specifically, middle aged HFL-1 HDFs (cpd 59) and terminally senescent HFL-1 HDFs (cpd 65) that had senesced in the absence of any substance were used. • 3.2. The cells were seeded and maintained in complete medium (see 1.2). Culture medium supplemented with the substances [final concentration for quercetin (QUER), 18α-glycyrrhetinic acid (18α GA), and hederagenin (HED): 2 µg/ml and for quercetin caprylate (QU-CAP) three concentrations were applied: 0.5, 2 and 5 µg/ml] or the diluents (0.1% DMSO or 0.1% CAP) were added 24 h later. The cells were replenished with fresh media supplemented with the substances or the diluents every 24 h for 1 week and their numbers were then examined using a Coulter Z2 ® counter (Coulter Corporation). • 3.3. […]

tyrosinase = test: Immunoblot of tyrosinase expression in melanocytes; assay type: cell-based, Mouse; details: 72 h
Method: The steps, methods and results that were obtained regarding the whitening properties of the examined substances are the following: • A) Cellular whitening of melanocytes. • A.1. Mouse melanocytes (B10F16 cell line) were used in in vitro conditions (growth at 37°C, 5% CO2 and 95% humidity). • A.2. The cells were maintained in Dulbecco's modified Eagle's medium (DMEM®; Invitrogen Life Technologies Inc.) supplemented with 10% (v/v) fetal calf serum, 100 Units/ml penicillin, 100 µg/ml strepromycin, 2 mM glutamine and 1% (v/v) non-essential amino acids (complete medium). • A.3. 10^5 cells were seeded in petri dishes and the following day they were fed with medium supplemented with the substances [final concentration for all substances: 5 µg/ml and 10 µg/ml]. Quercetin (QUER), 18α-glycyrrhetinic acid (18α GA) and hederagenin (HED) were diluted in DMSO whereas quercetin caprylate was diluted in caprilic/capric triglycerides (CAP). Therefore, the control cultures were incubated in medium supplemented with 0.1% DMSO or 0.1% CAP. The media were replenished every 24 h and the cells were kept under these conditions constantly for 72 h. Cells were then collected and pelleted and the cell pellet was photographed. • A.4. […] The result was positively correlated to the concentration of quercetin used. • B) Detection of tyrosinase expression. • B.1. Mouse melanocytes were cultured as described in A.1.-A.3. After 72 h of treatment, the cells were collected, lysed and proteins were extracted and subjected to SDS-PAGE followed by immunoblot analysis against tyrosinase. Protein concentrations were determined using the Bradford method with BSA as a standard. • B.2.
Immunoblot analysis of tyrosinase (70-80 kDa) in melanocytes treated with the substances or the relative diluents. Equal protein loading was verified by stripping the membrane and reprobing them with GAPDH (37 kDa) antibody (bottom panel).

HFL-1 HDFs = test: Levels of oxidized (carbonylated) proteins, OxyBlot analysis; assay type: cell-based, human; details: 24 h treatment, versus relative control cells
[2] = middle aged cells (cpd 59), 2 µg/ml, quercetin caprylate 0.5, 2 and 5 µg/ml
[3] = middle aged cells, 2 µg/ml, quercetin caprylate all three concentrations
[4] = terminally senescent cells (cpd 65), 2 µg/ml, quercetin caprylate 2 and 5 µg/ml
[5] = terminally senescent cells, quercetin 2 µg/ml, quercetin caprylate higher concentrations

protein levels of tyrosinase (tyrosinase; high concentration (10 µg/ml)) | Compound | proliferation (number of cells) [1, 2] | β-galactosidase activity staining [1, 3] | morphology and proliferation [1] | proliferation (number of cells) [1, 4] | β-galactosidase activity staining [1, 5] | protein levels of tyrosinase (tyrosinase; 5 µg/ml and 10 µg/ml) | levels of oxidized proteins (HFL-1 HDFs)
– | O=c1c(O)c(-c2ccc(O)c(O)c2)oc2cc(O)cc(O)c12 [Quercetin] | higher proliferation rates | less positive to β-galactosidase activity staining | regained a younger morphology and were induced to limited but significant proliferation | limited but sigmificant cell proliferation | many of those cells were negative for β-gatactosidase activity | reduced protein levels of tyrosinase | –
– | CC1(C)[C@@H](O)CC[C@]2(C)[C@H]3C(=O)C=C4[C@H]5C[C@@](C)(C(=O)O)CC[C@]5(C)CC[C@@]4(C)[C@]3(C)CC[C@@H]12 [18α-glycyrrhetinic acid] | higher proliferation rates | less positive to β-galactosidase activity staining | regained a younger morphology and were induced to limited but significant proliferation | – | – | – | slightly lower levels of oxidized carbonylated proteins; also recorded: lower amounts of oxidized proteins
– | quercetin caprylate | higher proliferation rates | less positive to β-galactosidase activity staining | regained a younger morphology and were induced to limited but significant proliferation | limited but sigmificant cell proliferation | many of those cells were negative for β-gatactosidase activity | reduced protein levels of tyrosinase | less oxidized proteins; also recorded: lower amounts of oxidized proteins
reduced protein levels of tyrosinase | CC1(C)CC[C@]2(C(=O)O)CC[C@]3(C)C(=CC[C@@H]4[C@@]5(C)CC[C@H](O)[C@@](C)(CO)[C@@H]5CC[C@]43C)[C@@H]2C1 [Hederagenin] | – | – | – | – | – | – | –
